{
  "source": "PubChem BioAssay AID1259411",
  "about": "(Chemical Carcinogenesis Research Information System (CCRIS), 2018)",
  "test_system": "rodent carcinogenicity bioassays, tumor incidence",
  "experiment": "CCRIS carcinogenicity studies",
  "in_short": "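NCI-built, expert-reviewed records of carcinogenicity and related test outcomes (mutagenicity, tumor promotion/inhibition) compiled from published and report sources, historical span 1985-2011, not updated.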",
  "note": "Calls of active or inactive are those of the source. No rule for the calls is given here.",
  "data": [
    {"smiles": "O=[O+][O-]", "values": [
      {"measurement": "carcinogen call", "setting": "Species: MOUSE, Strain/Sex: B6C3F1/FEMALE, Route: INHALATION, Dose: 0, 0.12, 0.5, 1 PPM 6 HR/D 5 D/WK FOR 105 WK (STUDY DURATION: 105 WK), Dose: 0, 0.12, 0.5, 1 PPM 6 HR/D 5 D/WK FOR 105 WK (STUDY DURATION: 105 WK), Tumor Site: Type of Lesion: LUNG (ALVEOLAR/BRONCHIOLAR): ADENOMA OR CARCINOMA", "result": "active; positive"},
      {"measurement": "carcinogen call", "setting": "Species: MOUSE, Strain/Sex: B6C3F1/FEMALE, Route: INHALATION, Dose: 0, 0.5, 1 PPM 6 HR/D 5 D/WK FOR 130 WK (STUDY DURATION: 130 WK), Dose: 0, 0.5, 1 PPM 6 HR/D 5 D/WK FOR 130 WK (STUDY DURATION: 130 WK), Tumor Site: Type of Lesion: LUNG (ALVEOLAR/BRONCHIOLAR): ADENOMA", "result": "active; positive"},
      {"measurement": "carcinogen call", "setting": "Species: MOUSE, Strain/Sex: B6C3F1/MALE, Route: INHALATION, Dose: 0, 0.12, 0.5, 1 PPM 6 HR/D 5 D/WK FOR 105 WK (STUDY DURATION: 105 WK), Dose: 0, 0.12, 0.5, 1 PPM 6 HR/D 5 D/WK FOR 105 WK (STUDY DURATION: 105 WK), Tumor Site: Type of Lesion: LUNG: ALVEOLAR/BRONCHIOLAR ADENOMA OR CARCINOMA", "result": "equivocal"},
      {"measurement": "carcinogen call", "setting": "Species: MOUSE, Strain/Sex: B6C3F1/MALE, Route: INHALATION, Dose: 0, 0.5, 1 PPM 6 HR/D 5 D/WK FOR 130 WK (STUDY DURATION: 130 WK), Dose: 0, 0.5, 1 PPM 6 HR/D 5 D/WK FOR 130 WK (STUDY DURATION: 130 WK), Tumor Site: Type of Lesion: LUNG: ALVEOLAR/BRONCHIOLAR ADENOMA OR CARCINOMA", "result": "equivocal"},
      {"measurement": "carcinogen call", "setting": "Species: RAT, Strain/Sex: F344/FEMALE, Route: INHALATION, Dose: 0, 0.12, 0.5, 1 PPM 6 HR/D 5 D/WK FOR 20 MO (STUDY DURATION: 20 MO), Dose: 0, 0.12, 0.5, 1 PPM 6 HR/D 5 D/WK FOR 20 MO (STUDY DURATION: 20 MO)", "result": "inactive; negative"},
      {"measurement": "carcinogen call", "setting": "Species: RAT, Strain/Sex: F344/FEMALE, Route: INHALATION, Dose: 0, 0.12, 0.5, 1 PPM 6 HR/D 5 D/WK FOR 105 WK (STUDY DURATION: 105 WK), Dose: 0, 0.12, 0.5, 1 PPM 6 HR/D 5 D/WK FOR 105 WK (STUDY DURATION: 105 WK)", "result": "inactive; negative"},
      {"measurement": "carcinogen call", "setting": "Species: RAT, Strain/Sex: F344/FEMALE, Route: INHALATION, Dose: 0, 0.5, 1 PPM 6 HR/D 5 D/WK FOR 125 WK (STUDY DURATION: 125 WK), Dose: 0, 0.5, 1 PPM 6 HR/D 5 D/WK FOR 125 WK (STUDY DURATION: 125 WK)", "result": "inactive; negative"},
      {"measurement": "carcinogen call", "setting": "Species: RAT, Strain/Sex: F344/MALE, Route: INHALATION, Dose: 0, 0.12, 0.5, 1 PPM 6 HR/D 5 D/WK FOR 20 MO (STUDY DURATION: 20 MO), Dose: 0, 0.12, 0.5, 1 PPM 6 HR/D 5 D/WK FOR 20 MO (STUDY DURATION: 20 MO)", "result": "inactive; negative"},
      {"measurement": "carcinogen call", "setting": "Species: RAT, Strain/Sex: F344/MALE, Route: INHALATION, Dose: 0, 0.12, 0.5, 1 PPM 6 HR/D 5 D/WK FOR 105 WK (STUDY DURATION: 105 WK), Dose: 0, 0.12, 0.5, 1 PPM 6 HR/D 5 D/WK FOR 105 WK (STUDY DURATION: 105 WK)", "result": "inactive; negative"},
      {"measurement": "carcinogen call", "setting": "Species: RAT, Strain/Sex: F344/MALE, Route: INHALATION, Dose: 0, 0.5, 1 PPM 6 HR/D 5 D/WK FOR 125 WK (STUDY DURATION: 125 WK), Dose: 0, 0.5, 1 PPM 6 HR/D 5 D/WK FOR 125 WK (STUDY DURATION: 125 WK)", "result": "inactive; negative"}
    ]},
    {"smiles": "N[C@H](CCC(=O)N[C@H](Cc1c[nH]c2ccccc12)C(=O)O)C(=O)O", "values": [
      {"measurement": "carcinogen call", "setting": "Species: MOUSE, Strain/Sex: C57BL.CBA, Route: SC, Dose: 0.0145 AND 0.145 MG/KG 2X WK FOR 104 WK (STUDY DURATION: 104 WK)", "result": "inactive; negative"},
      {"measurement": "carcinogen call", "setting": "Species: RAT, Strain/Sex: WISTAR, Route: SC, Dose: 0.0145 AND 0.145 MG/KG 2X WK FOR 104 WK (STUDY DURATION: 104 WK)", "result": "inactive; negative"}
    ]},
    {"smiles": "Nc1cccc2ccccc12", "values": [
      {"measurement": "carcinogen call", "setting": "Species: DOG, Strain/Sex: BEAGLE/FEMALE, Route: ORAL, Dose: 22.0 MG/KG 5/WK", "result": "inactive; negative"},
      {"measurement": "carcinogen call", "setting": "Species: DOG, Strain/Sex: BEAGLE/MALE, Route: ORAL, Dose: 18.4 MG/KG 5/WK", "result": "inactive; negative"}
    ]},
    {"smiles": "O=C1c2ccccc2-c2ccc3c4c(ccc1c24)-c1ccccc1C3=O", "values": [
      {"measurement": "carcinogen call", "setting": "Species: MOUSE, Strain/Sex: B6C3F1/FEMALE, Route: ORAL, Dose: 0, 12500, 25000 PPM IN DIET, Dose: 0, 12500, 25000 PPM IN DIET", "result": "inactive; negative"},
      {"measurement": "carcinogen call", "setting": "Species: MOUSE, Strain/Sex: B6C3F1/MALE, Route: ORAL, Dose: 0, 25000, 50000 PPM IN DIET, Dose: 0, 25000, 50000 PPM IN DIET, Tumor Site: Type of Lesion: LYMPHATIC SYSTEM: LYMPHOMA, LIVER: HEPATOCELLULAR CARCINOMA", "result": "active; positive"},
      {"measurement": "carcinogen call", "setting": "Species: RAT, Strain/Sex: F344/FEMALE, Route: ORAL, Dose: 0, 3500, 7000 PPM IN DIET, Dose: 0, 3500, 7000 PPM IN DIET", "result": "inactive; negative"},
      {"measurement": "carcinogen call", "setting": "Species: RAT, Strain/Sex: F344/MALE, Route: ORAL, Dose: 0, 3500, 7000 PPM IN DIET, Dose: 0, 3500, 7000 PPM IN DIET", "result": "inactive; negative"}
    ]}
  ]
}
